Results from patent US8993585B2, “Cyclic amine substituted pyrimidinediamines as PKC inhibitors” (Rigel Pharmaceuticals, Inc., priority 2007, dated 2015).

System: Human primary T cells
Experiment: IL-2 ELISA, Human Primary T Cell, Anti-CD3+CD28+ (Example 3)
Type: cell-based
Conditions: anti-CD3+CD28 stimulation
In short: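 Human primary T cells, 100,000 per well, were pre-incubated with compound in Yssel's medium for 1 h at 37 °C. The counter-assay used 0.5 ng/ml PMA with 0.1 uM ionomycin final.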

| SMILES | IC50 (24 hours) | IC50 (Homo sapiens, T-cell, 24 h) | other results |
| --- | --- | --- | --- |
| COc1cc(Nc2ncc(C)c(NC3CC(C)(C)N(C)C(C)(C)C3)n2)cc(OC)c1OC [Compound I-16] | 5.28 µM | – | – |
| CN1C(C)(C)CC(Nc2nc(Nc3nc(-c4ccc(Oc5ccccc5)cc4)cs3)ncc2F)CC1(C)C [II-139] | – | 0.91 µM | – |
| CC(C)OC(=O)Nc1ccc(Nc2ncc(F)c(NC3CC(C)(C)N(C)C(C)(C)C3)n2)cc1 [Compound I-137] | 1.64 µM | – | – |
| CN1CCN(c2ccc(Nc3ncc(C(N)=O)c(NC4CC(C)(C)N(C)C(C)(C)C4)n3)cc2Cl)CC1 [Compound I-98] | 1.07 µM | – | – |
| CCN1CCc2cc(Nc3ncc(F)c(NC4CC(C)(C)N(C)C(C)(C)C4)n3)ccc21 [II-52] | – | 5.61 µM | – |
| CN1C(C)(C)CC(Nc2nc(Nc3ccc4c(c3)CC(=O)NO4)ncc2F)CC1(C)C [II-3] | – | 1.85 µM | – |
| CN1C(C)(C)CC(Nc2nc(Nc3ccc4c(c3)CCC(=O)N4)ncc2F)CC1(C)C [II-2] | 1.4 µM | – | – |
| CN1C(C)(C)CC(Nc2nc(Nc3ccc(-c4ccncc4)c(Cl)c3)ncc2F)CC1(C)C [Compound I-99] | 0.304 µM | – | – |
| CCN(CC)C1CCC(Nc2nc(Nc3ccc(N4CCN(S(C)(=O)=O)CC4)c(C(F)(F)F)c3)ncc2F)CC1 (centres unmarked) [IV-9, N4-(4-Diethylamino)cyclohexyl-5-fluoro-N2-[4-(4-methylsulfonylpiperazino)-3-trifluoromethyl]phenyl-2,4-pyrimidinediamine] | – | 3.45 µM | – |
| CN1C(C)(C)CC(Nc2nc(Nc3cccc(-c4ccncc4)c3)ncc2F)CC1(C)C [Compound I-79] | 0.552 µM | – | – |
| COc1cc(Nc2ncc(F)c(NC3CC(C)(C)N(C)C(C)(C)C3)n2)ccc1N1CCN(C)CC1 [Compound I-55] | 1.57 µM | – | – |
| CN1CCN(c2ccc(Nc3ncc(F)c(NC4CCN(CCO)CC4)n3)cc2Cl)CC1 [III-8, N2-[3-Chloro-4-(4-methylpiperazino)]phenyl-5-fluoro-N4-[1-(2-hydroxyethyl)piperidin-4-yl]-2,4-pyrimidinediamine] | 2.61 µM | – | – |
| CN1C(C)(C)CC(Nc2nc(Nc3cccc(-n4cnnn4)c3)ncc2C#N)CC1(C)C [Compound I-405] | 0.24 µM | – | – |
| CN1C(C)(C)CC(N(Cc2ccc3ccccc3c2)c2nc(Nc3ccc4c(c3)OCCO4)ncc2F)CC1(C)C [II-87] | – | 3.81 µM | – |
| COC(=O)CCN1C(C)(C)CC(Nc2nc(Nc3ccc(OC)c(C(F)(F)F)c3)ncc2F)CC1(C)C [Compound I-295] | 5.1 µM | – | – |
| COc1ccc(-c2csc(Nc3ncc(F)c(NC4CC(C)(C)N(C)C(C)(C)C4)n3)n2)cc1F [II-137] | – | 0.46 µM | – |
| CN1C(C)(C)CC(Nc2nc(Nc3ccc4c(c3)OC3(CCCC3)O4)ncc2F)CC1(C)C [II-113] | – | 2.17 µM | – |
| CN1C(C)(C)CC(Nc2nc(Nc3ccc(C#N)c(C(F)(F)F)c3)ncc2F)CC1(C)C [Compound I-152] | 0.604 µM | – | – |
| CC1(C)CC(Nc2nc(Nc3ccc(N4CCN(S(C)(=O)=O)CC4)c(Cl)c3)ncc2F)CC(C)(C)N1 [Compound I-258] | 0.399 µM | – | – |
| CN1C(C)(C)CC(Nc2nc(Nc3ccc4c(c3)oc(=O)n4CCN3CCOCC3)ncc2F)CC1(C)C [II-167] | – | 2.18 µM | – |
| COc1cc(Nc2ncc(F)c(NC3CCN(Cc4ccncc4)CC3)n2)cc(-n2nnnc2C)c1 [III-10, 5-fluoro-N2-[3-methoxy-5-(5-methyl-1H-tetrazol-1-yl)]phenyl-N4-[1-(pyridin-4-yl)methylpiperidin-4-yl]-2,4-pyrimidinediamine] | 2.22 µM | – | – |
| COc1cc(Nc2ncc(C#C[Si](C)(C)C)c(NC3CC(C)(C)N(C)C(C)(C)C3)n2)cc(OC)c1 [Compound I-430] | – | – | IC50 (T-cell, 24 hours): 4.47 µM |
| COC(=O)/C=C/N1C(C)(C)CC(Nc2nc(Nc3ccc(OC)c(C(F)(F)F)c3)ncc2F)CC1(C)C [Compound I-301] | 0.951 µM | – | – |
| CN1C(C)(C)CC(Nc2nc(Nc3cc(OCC(F)(F)F)cc(OCC(F)(F)F)c3)ncc2C#N)CC1(C)C [Compound I-411] | 0.28 µM | – | – |

| SMILES | IC50 (24 hours) | IC50 (Homo sapiens, T-cell, 24 h) | other results |
| --- | --- | --- | --- |
| CCN1C(=O)COc2cc(Nc3ncc(F)c(NC4CC(C)(C)N(C)C(C)(C)C4)n3)ccc21 [II-58] | – | 0.231 µM | – |
| CN1C(C)(C)CC(Nc2nc(Nc3ccc4c(c3)OCC(=O)N4CC3CC3)ncc2F)CC1(C)C [II-77] | 0.101 µM | – | – |
| CN1C(C)(C)CC(Nc2nc(Nc3cc(F)cc(F)c3)ncc2F)CC1(C)C [Compound I-354] | 0.595 µM | – | – |
| CN1C(C)(C)CC(Nc2nc(Nc3ccc4c(c3)OCCCO4)ncc2F)CC1(C)C [II-43] | – | 1.47 µM | – |
| CCOc1ccc2nc(Nc3ncc(F)c(NC4CC(C)(C)N(C)C(C)(C)C4)n3)sc2c1 [II-18] | – | 2.12 µM | – |
| CN1C(C)(C)CC(Nc2nc(Nc3ccc(N4CCN(S(C)(=O)=O)CC4)c(Cl)c3)ncc2C(N)=O)CC1(C)C [Compound I-91] | 3.91 µM | – | – |
| CN1C(C)(C)CC(Nc2nc(Nc3ccc4cnn(C)c4c3)ncc2F)CC1(C)C [II-41] | – | 1.61 µM | – |
| CN1C(C)(C)CC(Nc2nc(Nc3cc4c(cc3Br)OC(F)(F)O4)ncc2F)CC1(C)C [II-122] | – | 2.16 µM | – |
| CCN(CC)C1CCC(Nc2nc(Nc3ccc(N4CCN(S(C)(=O)=O)CC4)c(Cl)c3)ncc2F)CC1 (centres unmarked) [IV-4, N2-[3-Chloro-4-(4-methylsulfonylpiperazino)]phenyl-N4-(4-diethylamino)cyclohexyl-5-fluoro-2,4-pyrimidinediamine] | – | 7.05 µM | – |
| COc1cc(Nc2ncc(F)c(NC3CCC(C)(C)N(C)C(C)(C)C3)n2)cc(OC)c1OC (centres unmarked) [Compound I-266, 5-Fluoro-N2-[3,4,5-trimethoxy]phenyl-N4-(1,2,2,7,7-pentamethylazepan-4-yl)-2,4-pyrimidinediamine] | 11.2 µM | – | – |
| Cc1ccc(Nc2ncc(F)c(N(Cc3ccccc3)C3CC(C)(C)N(C)C(C)(C)C3)n2)cc1C#N [Compound I-313] | – | 0.793 µM | – |
| CN1CCN(S(=O)(=O)c2ccc(Nc3ncc(F)c(NC4CC(C)(C)N(C)C(C)(C)C4)n3)cc2Cl)CC1 [Compound I-45] | 2.37 µM | – | – |
| COc1ccc(Nc2ncc(F)c(NC3CC(C)(C)N(CCC(=O)O)C(C)(C)C3)n2)cc1C(F)(F)F [Compound I-305] | 17.9 µM | – | – |
| CN1CCN(c2ccc(Nc3nccc(NC4CC(C)(C)N(C)C(C)(C)C4)n3)cc2C(F)(F)F)CC1 [Compound I-229] | 0.585 µM | – | – |
| CN1C(C)(C)CC(Nc2nc(Nc3ccc4c(c3)oc(=O)n4CCF)ncc2F)CC1(C)C [II-172] | – | 0.75 µM | – |
| CN1CCN(c2ccc(Nc3ncc(F)c(N(Cc4ccccc4)C4CC(C)(C)N(C)C(C)(C)C4)n3)cc2C(F)(F)F)CC1 [Compound I-311] | – | 0.804 µM | – |
| CN1C(C)(C)CC(Nc2nc(Nc3ccc(-c4cc5ccccc5s4)c(Cl)c3)ncc2F)CC1(C)C [Compound I-156] | 2.89 µM | – | – |
| COc1ccc(Nc2ncc(F)c(NC3CC(C)(C)N(C)C3(C)C)n2)cc1OC (centres unmarked) [Compound I-281, 5-Fluoro-N2-(3,4-dimethoxy)phenyl-N4-(1,2,2,5,5-pentamethylpyrrolidin-3-yl)-2,4-pyrimidinediamine] | 17.1 µM | – | – |
| COc1cc(Nc2ncc(F)c(N(Cc3ccccc3)C3CC(C)(C)N(C)C(C)(C)C3)n2)cc(OC)c1 [Compound I-308] | – | 0.809 µM | – |
| CCCN1C(=O)C2(CCC2)Oc2cc(Nc3ncc(F)c(NC4CC(C)(C)N(C)C(C)(C)C4)n3)ccc21 [II-166] | 0.44 µM | – | – |
| CN1C(C)(C)CC(Nc2nc(Nc3ccc4c(c3)OC(C)(C)C(=O)N4CC3CC3)ncc2F)CC1(C)C [II-76] | 0.178 µM | – | – |
| CC(C)OC(=O)Nc1cccc(Nc2ncc(F)c(NC3CC(C)(C)N(C)C(C)(C)C3)n2)c1 [Compound I-139] | 1.57 µM | – | – |
| COc1ccc(Nc2ncc(F)c(NC3CC(C)(C)N(C)C(C)(C)C3)n2)cc1OC(C)C [Compound I-360] | 2.2 µM | – | – |
